The structures appear in SMILES notation.

The text below walks through data of US9326515B2, “Fungicidal 3-[(1,3-thiazol-4-ylmethoxyimino)(phenyl)methyl]-2-substituted-1,2,4-oxadiazol-5(2H)-one derivatives” (BAYER INTELLECTUAL PROPERTY GMBH, priority 2011, dated 2016).

The test system of one data set is Phytophthora infestans. Format: in vivo. Conditions: 500 ppm, spray on tomato plants, contaminated after 24 hours, grading 5 days after contamination vs control plants.
The test system of the next data set is Alternaria brassicae. Kind of data set: Example B: in vivo preventive test on Alternaria brassicae (leaf spot on radish). Conditions: 500 ppm, spray on radish plants, contaminated after 24 hours, grading 6 days after contamination vs control plants. On the procedure: The active ingredients tested are prepared by homogenization in a mixture of acetone/tween/DMSO, and then diluted with water to obtain the desired active material concentration.
Radish plants (“Pernod Clair” variety), sown in starter cups on a 50/50 peat soil-pozzolana substrate and grown at 17° C., are treated at the cotyledon stage by spraying with the active ingredient prepared as described above. Plants, used as controls, are treated with the mixture of acetone/tween/DMSO/water not containing the active material.
After 24 hours, the plants are contaminated by spraying the cotyledons with an aqueous suspension of Alternaria brassicae spores (50 000 spores per ml). The spores are collected from a 15-day-old culture. The contaminated radish plants are incubated at 20° C. and at 100% relative humidity.
Grading (% of efficacy) is carried out 6 days after the contamination, in comparison with the control plants.
Under these conditions, good (at least 70%) or total protection is observed at a dose of 500 ppm with the following compounds: […]

For data set [1] the following is noted: pH 2.7.

As a reminder, the LogP is a log measure of how a compound divides between an organic and an aqueous phase. Consider `COc1cccc(/C(=N/OCc2csc(NC(=O)C3CCc4ccccc4O3)n2)c2nc(=O)on2C)c1` (racemic) [Example 35], for which the “% efficacy” value is reported as 90% with Phytophthora infestans and 100% with Alternaria brassicae. Besides, in data set [1], the LogP is on record as 3.44.
